This passage reports Kd results from paper PMC10950498, “Ligands of HMG-like dorsal switch protein 1 of Spodoptera exigua leads to mortality in diamondback moth, Plutellaxylostella” (Heliyon, 2024).

Each structure is given as a SMILES string.

The target in this assay is T1, HMG-like dorsal switch protein 1 (rSe-DSP1).
T1 construct: recombinant DSP1 protein (rSe-DSP1)
Briefly: thermal shift assay with fitted Kd. The assay is classed as binding, Spodoptera exigua.

As to `N#Cc1ccccc1C(=O)O` [CBA, o-Cyanobenzoic acid], the Kd (commonly the concentration at which binding is half-saturated) came to 246 µM.

For the compound `CCOc1cc(O)ccc1OC` [EMP, 3-Ethoxy-4-Methoxyphenol], the Kd came out at 148 µM.

As for `O=C1NC(=O)c2ccccc21` [PM, Phthalimide], the Kd came to 197 µM.
